Assay: gradient 5% acetonitrile 3 min, to 50% in 2 min, to 85% in 15 min, held 3 min, 100 µL/min
Conditions: column: Zorbax Extend-C18 2.1 x 50 mm; eluents: water / acetonitrile, 0.1% formic acid
Method in brief: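 The mobile phases were water and acetonitrile, each with 0.1% formic acid, pumped at 100 μL/min through a Zorbax Extend-C18 column (2.1 × 50 mm, 1.8 μm). Pure standards were injected as mixtures of ~100 molecules and detected by a quadrupole time-of-flight mass spectrometer in positive and negative ionization mode. Retention time came from computationally picked adduct peaks, each inspected by hand.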

Structure (SMILES) | RP-LC retention time
Cc1nnc2c(=O)n(CC(=O)NCc3cc(F)cc(F)c3)c3cccnc3n12 | 686 s
Cc1csc(-c2cc(S(=O)(=O)NCCN3CCOCC3)cn2CC(=O)N2CCCCC2)n1 | 654 s
COCc1nc(C2CCCN(C(=O)NC3CCCC3)C2)no1 (stereo not drawn) | 743 s
c1cnc(N2CCN(Cc3ccc4c(c3)OCO4)CC2)nc1 | 432 s
Cc1ccc2c(c1)N(S(C)(=O)=O)CCC(C(=O)Nc1c(C)cccc1C)O2 (stereo not drawn) | 930 s
O=C1NC2(CCN(C(=O)Nc3cccc(C(F)(F)F)c3)CC2)N=C1c1ccccc1 | 902 s
Cc1cc2c(cc1S(=O)(=O)N1CCCC1C(=O)N1CCCCC1)OC(C)C(=O)N2 (stereo not drawn) | 710 s
CC(C)NC(=O)N1CCC(Oc2ccccc2)C1 (stereo not drawn) | 764 s
CCn1cc(-c2nc(C)c(C(=O)NCc3cccc(OC)c3)s2)c2cccnc21 | 904 s
c1ccc2c(c1)CCN(c1nccnc1OC1CCNC1)C2 (stereo not drawn) | 649 s
COCc1c(C(=O)O)nnn1-c1cccc(C(F)(F)F)c1 | 760 s
N#Cc1cnn2ccn(C3OC(CO)C(O)C3O)c12 (stereo not drawn) | 614 s
O=C(NCCC1=CCCCC1)c1ccc(CN2CC(=O)N3CCCCC3C2=O)cc1 (stereo not drawn) | 680 s
O=C(Cn1nc(N2CCCCCC2)c2ccccc2c1=O)Nc1ccc(F)cc1 | 1090 s
Cc1cc(=O)n(CC(=O)Nc2cc(F)ccc2F)c(N2CCCCC2)n1 | 708 s
CC(C)NC(=O)N1CCc2c(c(-c3nc(-c4ccccc4)no3)nn2C)C1 | 820 s

Structure (SMILES) | RP-LC retention time
Cc1cccc2nnc(N3CCC(C(=O)Nc4cccc(F)c4)CC3)n12 | 697 s
Cc1c(Cl)cccc1-n1ccn2cc(-c3ccc(F)cc3)nc2c1=O | 896 s
COc1cc([C@@H]2c3cc4c(cc3[C@H](O)[C@@H](CO)[C@@H]2C(=O)NCc2ccc(F)cc2)OCO4)cc(OC)c1OC | 720 s
Cc1noc2nc(C)n(CC(=O)Nc3cccc4c3CCCC4)c(=O)c12 | 871 s
Cc1c(OCC(N)=O)ccc2c1O/C(=C\c1ccc3c(c1)OCO3)C2=O | 714 s
CCOC(=O)Cc1cc(=O)oc2cc(O)ccc12 | 677 s
O=C(NCCc1ccccc1)Nc1cccc(-c2nnc3n2CCCC3)c1 | 694 s
Cc1nn2c(CNS(=O)(=O)c3ccccc3C)c(-c3ccccc3)nc2s1 | 827 s
CCOC(=O)Oc1c(OC)cc(C(=O)O[C@@H]2C[C@@H]3CN4CCc5c([nH]c6cc(OC)ccc56)[C@H]4C[C@@H]3[C@H](C(=O)OC)[C@H]2OC)cc1OC | 935 s
COCCCNC(=O)CCC(=O)N1CCCn2nc(-c3cn(C)c4ccccc34)cc21 | 670 s
O=C(Cn1cc(-c2ccccc2)c2ncnc(N3CCOCC3)c21)NC1CCCC1 | 717 s
O=C(Cc1cccs1)NCc1cccnc1Oc1ccccc1 | 853 s
CCN1C(=O)Cc2ccccc2C1C(=O)NCc1ccc2c(c1)OCO2 (stereo not drawn) | 727 s
Nc1cc(C2CCN(S(=O)(=O)c3ccc(Cl)cc3)CC2)no1 | 826 s
Cc1cc(C)c(S(=O)(=O)N2CCC3(CC2)c2nccn2CCN3C)c(C)c1 | 684 s
CC(C)NC(=O)N(CC(=O)N1CCc2sccc2C1COc1cccc(F)c1)CC1CCCO1 (stereo not drawn) | 950 s

Results, then the molecule that gave them:

RP-LC retention time | Structure (SMILES)
626 s | Cn1nnc2c(N3CCN(C(=O)Nc4ccccc4C#N)CC3)ncnc21
857 s | COC(=O)C1=CN(c2cccc(OC)c2)c2cc(F)ccc2S1(=O)=O
557 s | Cc1cnc(C2CCOCC2)n1C1CCCN(Cc2c[nH]c3ccccc23)C1 (stereo not drawn)
1030 s | O=c1c2sccc2n(Cc2nc(-c3ccc(F)cc3)no2)c(=O)n1Cc1ccccc1
634 s | Cn1c(N2CCCC(C(=O)Nc3nccs3)C2)cc(=O)n(C)c1=O (stereo not drawn)
640 s | COc1ccc(NC(=O)C2(C)CCCCC(=O)N2)cc1 (stereo not drawn)
806 s | Cc1noc(C)c1C1CCCN1C(=O)Cc1ccccc1Cl (stereo not drawn)
731 s | COc1ccc(CCNC(=O)c2ccc3c(c2)NC(=O)C2CCCCN32)cc1OC (stereo not drawn)
619 s | CCCCC(=O)Nc1cnc(N2CCNCC2)c(C(=O)N2CCCCC2C)c1 (stereo not drawn)
942 s | Cc1ccc2oc(C(=O)Nc3nccs3)c(C)c2c1
855 s | COc1cccc(CNC(=O)C2(C)CCCN(C(=O)Nc3cccc(C)c3C)C2)c1 (stereo not drawn)
820 s | O=C(Nc1cnc(N2CCOCC2)nc1)c1ccc(F)c(Cl)c1
621 s | CC(=O)OC1CCN(C(=O)NC(C)C)CC1
556 s | CCn1cnc(S(=O)(=O)N2CCC(C(=O)N3CCN(c4ccccn4)CC3)CC2)c1
727 s | CCOc1ccc(CC(=O)NC2CCN(c3cc(-c4cccs4)[nH]n3)C2)cc1OCC (stereo not drawn)
776 s | O=C(Cn1c(=O)n(C2CC2)c(=O)c2nscc21)NCCC1=CCCCC1
846 s | CC(C)NC(=O)c1nc2ccccn2c1-c1ccc(Cl)cc1
967 s | CC1CN(CC(=O)NCc2ccc3c(c2)OCO3)c2ccccc2S1 (stereo not drawn)

RP-LC retention time | Structure (SMILES)
585 s | Cc1ccc(-c2cn3cc(C(=O)NC(C)c4cccnc4)ccc3n2)cc1C (stereo not drawn)
739 s | CCOC(=O)c1nc(N2CCN(Cc3ccc4c(c3)OCO4)CC2)c2ccccc2n1
940 s | COc1cccc(NC(=O)C2CCN(S(=O)(=O)c3c(C)nn(-c4ccccc4)c3C)CC2)c1
1210 s | CC(C)c1cc(C(=O)Nc2ccc(F)c(Cl)c2)nc2ccnn12
716 s | CCCn1ncc(N2CCC(C(=O)NC(C)c3cccs3)CC2)cc1=O (stereo not drawn)
680 s | Cc1nc(C)c(C(=O)N2CCCCCCNC(=O)[C@@H]3CCC[C@@H]32)s1
889 s | CS(=O)(=O)N(CC(=O)NCc1ccc2c(c1)OCCCO2)Cc1ccc(Cl)cc1
676 s | CCNC(=O)c1[nH]c2ccc(F)cc2c1N1CCCC1=O
1310 s | CCn1c(C(=O)Nc2cc(Cl)ccc2C)cc2sc(Cl)cc21
767 s | O=C(NC1CCN(c2cc(-c3ccccc3)[nH]n2)C1)c1ccc(F)c(Cl)c1 (stereo not drawn)
616 s | CC(NC(=O)C1CCN(CCc2cn(C)c3ncccc23)CC1)c1ccc(F)cc1 (stereo not drawn)
1260 s | Clc1ccc(-c2noc(Cc3nc(-c4ccc5c(c4)OCO5)cs3)n2)cc1
651 s | CCOC(=O)C1CCN(C(=O)C2CCN(c3cncnc3N3CCCCC3)CC2)CC1
959 s | COc1ccc(CNC(=O)C(C)n2ccc3cc(S(=O)(=O)N4CCCCC4)ccc32)c(OC)c1 (stereo not drawn)
881 s | Cc1ccc(Nc2c(-c3ccccc3)nc3ccc(Br)cn23)cc1
717 s | CN(C)c1cccc(C(=O)N2CCC3(CC2)N=C(c2ccccc2)NO3)c1
742 s | O=C(c1ccoc1)N1CCCC(OCc2nc(C3CC3)no2)C1 (stereo not drawn)
627 s | CC(C)NC(=O)N1CCCC(CCc2nnc(-c3cnccn3)o2)C1 (stereo not drawn)

Reference: the METLIN SMRT retention time set (Domingo-Almenara et al. 2019)
